Measurements as given in patent EP4818178A1, “PREPARATION AND USE OF PYRIMIDOTHIOPYRANONE KRAS MUTANT PROTEIN INHIBITOR” (Ya Therapeutics Inc, priority 2024, dated 2025).

Key:
[1] = tested on: p-ERK in PSN-1 (G12R) cells; assay: Cellular p-ERK inhibition assay (HTRF); type: cell-based; settings: Homo sapiens, PSN1, 1 hour with compound, read-out: IC50 (nM) of the compounds on the inhibition of p-ERK in tumor cells, PSN-1
Protocol: (§1) Cells were seeded in clear 96-well cell culture plates, with 80 µL of cell suspension per well, containing 8000 cells per well. The plates were incubated overnight at 37°C using a CO2 incubator. 2 µL of the compound was added to 78 µL of cell culture medium, mixed well, and then 20 µL of the compound solution was added to the corresponding wells of the cell culture plate. The plates were returned to the CO2 incubator for another hour. After incubation, the cell supernatant was discarded, and 50 µL of the […] was added to the cell culture plate. Add 1X cell lysis buffer to each well and incubate at room temperature with shaking for 30 minutes. Dilute Phospho-ERK1/2 Eu Cryptate antibody and Phospho-ERK1/2 d2 antibody 20-fold using detection buffer. Transfer 16 µL of cell lysis supernatant to each well in a new 384 white microplate, then add 2 µL of Phospho-ERK1/2 Eu Cryptate antibody diluent and 2 µL of Phospho-ERK1/2 d2 antibody diluent. Incubate at room temperature for at least 4 hours. After incubation, read the HTRF excitation (320 nm) and emission (615 nm, 665 nm) using a multilabel analyzer. Calculate the IC50 of the analyte. "++++" indicates IC50≤ 10 nM; "+++" indicates 10 nM < IC50≤ 100 nM; "++" indicates 100 nM < IC50≤ 2000 nM; "+" indicates 2000 nM < IC50. Table 2. IC50 (nM) of the compounds on the inhibition of p-ERK in tumor cells.

[2] = tested on: p-ERK in AsPC-1 (G12D) cells; assay: Cellular p-ERK inhibition assay (HTRF); type: cell-based; settings: Homo sapiens, ASPC1, 1 hour with compound, read-out: IC50 (nM) of the compounds on the inhibition of p-ERK in tumor cells, AsPC-1
Protocol: as §1

[3] = tested on: p-ERK in HCT116 (G13D) cells; assay: Cellular p-ERK inhibition assay (HTRF); type: cell-based; settings: Homo sapiens, HCT-116, 1 hour with compound, read-out: IC50 (nM) of the compounds on the inhibition of p-ERK in tumor cells, HCT11 6
Protocol: as §1

KRasG12D = KRasG12D (Homo sapiens, UniProt P01116, G12D); assay: KRAS inhibitory activity test, TR-FRET (inhibition of binding of KRasG12D to GTP, SOS/GTP nucleotide exchange); type: biochemical; settings: read-out: IC50 values of the compounds for inhibiting KRAS enzymes, G12D
Outline: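 KRasG12D preloaded with Bodipy-GDP plus Tb-streptavidin (3 nM Kras/0.5 nM Tb-SA/30 nM Bodipy-GDP) incubated 1 h at rt with compound (10-point 3-fold series). SOS/GTP mixture then added for 1 h at rt. TR-FRET signal read; IC50 calculated.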

[4] = tested on: p-ERK in NCI-H460 (Q61H) cells; assay: Cellular p-ERK inhibition assay (HTRF); type: cell-based; settings: Homo sapiens, 1 hour with compound, read-out: IC50 (nM) of the compounds on the inhibition of p-ERK in tumor cells, NCI-H46 0
Protocol: as §1

[5] = tested on: p-ERK in MKN1 (WTdep) cells; assay: Cellular p-ERK inhibition assay (HTRF); type: cell-based; settings: Homo sapiens, MKN-1, 1 hour with compound, read-out: IC50 (nM) of the compounds on the inhibition of p-ERK in tumor cells, MKN 1
Protocol: as §1

[6] = tested on: p-ERK in NCI-H358 (G12C) cells; assay: Cellular p-ERK inhibition assay (HTRF); type: cell-based; settings: Homo sapiens, 1 hour with compound, read-out: IC50 (nM) of the compounds on the inhibition of p-ERK in tumor cells, NCI-H35 8
Protocol: as §1

[7] = tested on: p-ERK in A549 (G12S) cells; assay: Cellular p-ERK inhibition assay (HTRF); type: cell-based; settings: 1 hour with compound
Protocol: as §1

[8] = tested on: p-ERK in NCI-H727 (G12V) cells; assay: Cellular p-ERK inhibition assay (HTRF); type: cell-based; settings: Homo sapiens, 1 hour with compound, read-out: IC50 (nM) of the compounds on the inhibition of p-ERK in tumor cells, NCI-H72 7
Protocol: as §1

KRasG12D, sequence (P01116 1-188 isoform P01116-2 G12D): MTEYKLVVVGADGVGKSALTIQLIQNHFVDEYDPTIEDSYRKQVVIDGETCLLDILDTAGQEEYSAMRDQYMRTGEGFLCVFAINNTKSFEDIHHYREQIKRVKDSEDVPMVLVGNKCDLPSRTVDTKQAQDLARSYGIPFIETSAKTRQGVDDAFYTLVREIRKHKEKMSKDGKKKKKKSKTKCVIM

| Compound | IC50 [1] [nM] | IC50 [2] [nM] | IC50 [3] [nM] | IC50 (KRasG12D) [nM] | IC50 [4] [nM] | IC50 [5] [nM] | IC50 [6] [nM] | IC50 (nM) of the compounds on the inhibition of p-ERK in tumor cells, A54 9 [7] | IC50 [8] [nM] |
| --- | --- | --- | --- | --- | --- | --- | --- | --- | --- |
| Cc1cc(O)c(F)c(C2Cc3nc(OC[C@@]45CCCN4C[C@H](F)C5)nc(N4C[C@H]5CC[C@@H](C4)N5)c3CS2(=O)=O)c1C(F)(F)F (stereo partly drawn) [Compound 2, 4-((1R,5S)-3,8-diazabicyclo[3.2.1]octane-3-yl)-7-(2-fluoro-3-hydroxy-5-methyl-6-(trifluoromethyl)phenyl)-2-(((2R,7AS)-2-fluorotetrahydro-1H-pyrrolazin-7a(5H)-yl)methoxy)-7,8-dihydro-5H-thiopyrano[4,3-d]pyrimidine-6,6-dioxide] | 100 to 2000 | ≤ 10 | ≤ 10 | ≤ 10 | – | – | – | – | – |
| Cc1cc(N)c(F)c(C2Cc3nc(OC[C@@]45CCCN4C[C@H](F)C5)nc(N4CCC[C@@](C)(O)C4)c3CS2(=O)=O)c1C(F)(F)F (stereo partly drawn) [Compound 5, 7-(3-amino-2-fluoro-5-methyl-6-(trifluoromethyl)phenyl)-2-(((2R,7AS)-2-fluorotetra hydro-1H-pyrrolazin-7a(5H)-yl)methoxy)-4-((R)-3-hydroxy-3-methylpiperidin-1-yl)-7,8-dihydro-5H-thiopyrano[4,3-d]pyrimidine 6,6-dioxide] | 100 to 2000 | ≤ 10 | ≤ 10 | ≤ 10 | ≤ 10 | ≤ 10 | ≤ 10 | +++ + | ≤ 10 |
| Cc1cc(N)c(F)c(C2Cc3nc(OC[C@@]45CCCN4C[C@H](F)C5)nc(N4C[C@H]5CC[C@@H](C4)N5)c3CS2(=O)=O)c1C(F)(F)F (some centres unmarked) [Compound 1] | 100 to 2000 | ≤ 10 | ≤ 10 | ≤ 10 | ≤ 10 | ≤ 10 | ≤ 10 | +++ + | ≤ 10 |
| Cc1cc(N)nc(C2Cc3nc(OC[C@@]45CCCN4C[C@H](F)C5)nc(N4CCC[C@@](C)(O)C4)c3CS2(=O)=O)c1C(F)(F)F (stereo partly drawn) [Compound 7, 7-(6-amino-4-methyl-3-(trifluoromethyl)pyridin-2-yl)-2-(((2R,7AS)-2-fluorotetrahydro-1H-pyrrolazin-7a(5H)-yl)methoxy)-4-((R)-3-hydroxy-3-methylpiperidin-1-yl)-7,8-d ihydro-5H-thiopyrano[4,3-d]pyrimidine 6,6-dioxide] | 100 to 2000 | ≤ 10 | ≤ 10 | ≤ 10 | – | – | – | – | – |
| Cc1cc(O)c(F)c(C2Cc3nc(OC[C@@]45CCCN4C[C@H](F)C5)nc(N4CCC[C@@](C)(O)C4)c3CS2(=O)=O)c1C(F)(F)F (stereo partly drawn) [Compound 6, 7-(2-fluoro-3-hydroxy-5-methyl-6-(trifluoromethyl)phenyl)-2-(((2R,7AS)-2-fluorotetrahydro-1H-pyrrolazin-7a(5H)-yl)methoxy)-4-((R)-3-hydroxy-3-methylpiperidin-1-yl)-7,8-dihydro-5H-thiopyrano[4,3-d]pyrimidine 6,6-dioxide] | 100 to 2000 | ≤ 10 | ≤ 10 | ≤ 10 | ≤ 10 | ≤ 10 | ≤ 10 | +++ + | ≤ 10 |
